This note sets out measurements from patent publication US10543198B2 (Celgene Quanticel Research, Inc., priority 2014, dated 2020).

A value given as a limit tells only on which side of the number the result lay.

Assay [1] concerns THP-1 (AML) cells. Briefly: LSD1 CD11b Cellular Assay (flow cytometry). It is filed as cell-based. The conditions noted are these: CD11b expression in THP-1 cells, 4 days incubation. Here is the method:
To analyze LSD1 inhibitor efficacy in cells, a CD11b flow cytometry assay was performed. LSD1 inhibition induces CD11b expression in THP-1 (AML) cells which can be measured by flow cytometry. […] LSD1 test compounds were serially diluted in DMSO. The dilutions were added to each well accordingly to a final concentration of 0.2% DMSO. The cells were incubated at 37 degrees Celsius in 5% CO2 for 4 days. 250 μL of each well was transferred to a well in a 96 well round bottom plate. The plate was centrifuged at 1200 rpm at 4 degrees Celsius in a Beckman Coulter Alegra 6KR centrifuge for 5 minutes. The media was removed leaving the cells at the bottom of the wells. The cells were washed in 100 μL cold HBSS (Hank's Balanced Salt Solution) plus 2% BSA (Bovine Serum Albumin) solution and centrifuged at 1200 rpm at 4 degrees Celsius for 5 minutes. The wash was removed. […] The cells were centrifuged and washed two times in 100 μl HBSS plus 2% BSA. After the final spin the cells were resuspended in 100 μL HBSS plus 2% BSA containing 1 ug/mL DAPI (4′,6-diamidino-2-phenylindole). The cells were then analyzed by flow cytometry in a BD FACSAria machine. Cells were analyzed for CD11b expression. The percent of CD11b expressing cells for each inhibitor concentration was used to determine an IC50 curve for each compound analyzed.
In general terms: A flow cytometer gives signals particle by particle.

Assay [2] has as its target full-length human LSD1 (Homo sapiens (Human), UniProt O60341). Briefly: In Vitro Enzyme Inhibition Assay - LSD-1 (TR-FRET). It is filed as biochemical. The conditions noted are these: 0.1 nM LSD1, H3K4me1-biotin peptide. Here is the method:
This assay determines the ability of a test compound to inhibit LSD1 demethylase activity.
The enzymatic assay of LSD1 activity is based on Time Resolved-Fluorescence Resonance Energy Transfer (TR-FRET) detection.
The ability of the compounds disclosed herein to inhibit LSD1 activity was quantified and the respective IC50 value was determined.

Regarding “4-[5-(4-methylphenyl)-1-[[(2R)-morpholin-2-yl]methyl]pyrrolo[3,2-b]pyridin-6-yl]benzonitrile [Example 48]”, the IC50 in assay [1] was > 10000 nM.
Take `Cc1ccc(-c2nc3ccn(CC4(F)CCNC4)c3cc2-c2ccc(C#N)cc2)cc1` (centres unmarked) [Example 9, 4-[1-[(3-fluoropyrroridin-3-yl)methyl]-5-(4-methylphenyl)pyrrolo[3,2-b]pyridin-6-yl]benzonitrile]: the IC50 was < 100 nM in assay [2] and 100 to 1000 nM in assay [1] (Homo sapiens, 96 h).
On to `Cn1cc2cc(-c3ncc(N4CCC(N)CC4)nc3-c3ccc(C#N)c(F)c3)ccc2n1` [Example 49, 4-[6-(4-aminopiperidin-1-yl)-3-(2-methyl-2H-indazol-5-yl)pyrazin-2-yl]-2-fluorobenzonitrile], for which the IC50 in assay [2] is < 100 nM; in assay [1] (Homo sapiens, 96 h), < 100 nM.
Turning to `CNC1CCN(c2cnc(-c3ccc4nn(C)cc4c3)c(-c3ccc(C#N)c(F)c3)n2)CC1` [Example 50, 2-fluoro-4-[3-(2-methyl-2H-indazol-5-yl)-6-[4-(methylamino)piperidin-1-yl]pyrazin-2-yl]benzonitrile], the IC50 in assay [2] was < 100 nM; in assay [1] (Homo sapiens, 96 h), < 100 nM.
For `Cn1ncc2cc(-c3ncc(N4CCC(N)CC4)nc3-c3ccc(C#N)c(F)c3)ccc21` [Example 51, 4-[6-(4-aminopiperidin-1-yl)-3-(1-methyl-1H-indazol-5-yl)pyrazin-2-yl]-2-fluorobenzonitrile], the IC50 in assay [2] is < 100 nM; in assay [1] (Homo sapiens, 96 h), < 100 nM.
As to `Cn1cc2ccc(-c3ncc(N4CCC(N)CC4)nc3-c3ccc(C#N)c(F)c3)cc2n1` [Example 52, 4-[6-(4-aminopiperidin-1-yl)-3-(2-methyl-2H-indazol-6-yl)pyrazin-2-yl]-2-fluorobenzonitrile], the IC50 is < 100 nM in assay [2] and < 100 nM in assay [1] (Homo sapiens, 96 h).
For `Cn1nnc2cc(-c3ncc(N4CCC(N)CC4)nc3-c3ccc(C#N)c(F)c3)ccc21` [Example 53, 4-[6-(4-aminopiperidin-1-yl)-3-(1-methyl-1H-1,2,3-benzotriazol-5-yl)pyrazin-2-yl]-2-fluorobenzonitrile], the IC50 in assay [2] was < 100 nM; in assay [1] (Homo sapiens, 96 h), < 100 nM.
Regarding `Cn1nnc2cc(-c3ncc(N4CCC(N)CC4)nc3-c3ccc(C#N)c(F)c3)cnc21` [Example 54, 4-[6-(4-aminopiperidin-1-yl)-3-{3-methyl-3H-[1,2,3]triazolo[4,5-b]pyridin-6-yl}pyrazin-2-yl]-2-fluorobenzonitrile], the IC50 was < 100 nM in assay [2] and < 100 nM in assay [1] (Homo sapiens, 96 h).
`Cn1ccc2cc(-c3ncc(N4CCC(N)CC4)nc3-c3ccc(C#N)c(F)c3)cnc21` [Example 55, 4-[6-(4-aminopiperidin-1-yl)-3-{1-methyl-1H-pyrrolo[2,3-b]pyridin-5-yl}pyrazin-2-yl]-2-fluorobenzonitrile]: the IC50 in assay [2] is < 100 nM; in assay [1] (Homo sapiens, 96 h), < 100 nM.
Take `CNC1CCN(c2cnc(-c3ccc4c(c3)nnn4C)c(-c3ccc(C#N)c(F)c3)n2)CC1` [Example 56, 2-fluoro-4-{6-[4-(methylamino)piperidyl]-3-(1-methylbenzotriazol-5-yl)pyrazin-2-yl}benzenecarbonitrile]: the IC50 in assay [2] is < 100 nM; in assay [1] (Homo sapiens, 96 h), < 100 nM.
`CNC1CCN(c2cnc(-c3ccc(N(C)C)nc3)c(-c3ccc(C#N)c(F)c3)n2)CC1` [Example 57, 4-{3-[6-(dimethylamino)(3-pyridyl)]-6-[4-(methylamino)piperidyl]pyrazin-2-yl}-2-fluorobenzenecarbonitrile]: the IC50 was < 100 nM in assay [2] and < 100 nM in assay [1] (Homo sapiens, 96 h).
With `CNC1CCN(c2cnc(-c3cnc(N(C)C)nc3)c(-c3ccc(C#N)c(F)c3)n2)CC1` [Example 58, 4-{3-[2-(dimethylamino)pyrimidin-5-yl]-6-[4-(methylamino)piperidyl]pyrazin-2-yl}-2-fluorobenzenecarbonitrile], the IC50 in assay [2] was < 100 nM; in assay [1] (Homo sapiens, 96 h) it was < 100 nM.
Take `CNC1CCN(c2cnc(-c3cnc4c(cnn4C)c3)c(-c3ccc(C#N)c(F)c3)n2)CC1` [Example 59, 2-fluoro-4-{6-[4-(methylamino)piperidyl]-3-(1-methylpyrazolo[5,4-b]pyridin-5-yl)pyrazin-2-yl}benzenecarbonitrile]: the IC50 in assay [2] is < 100 nM; in assay [1] (Homo sapiens, 96 h), < 100 nM.
As for `CN(C)C1CCN(c2cnc(-c3ccc4nn(C)cc4c3)c(-c3ccc(C#N)c(F)c3)n2)CC1` [Example 60, 4-{6-[4-(dimethylamino)piperidyl]-3-(2-methyl(2H-indazol-5-yl))pyrazin-2-yl}-2-fluorobenzenecarbonitrile], the IC50 is < 100 nM in assay [2] and < 100 nM in assay [1] (Homo sapiens, 96 h).
`CNC1CCN(c2cnc(-c3cc4ncn(C)c4cc3F)c(-c3ccc(C#N)c(F)c3)n2)CC1` [Example 61, 2-fluoro-4-[3-(6-fluoro-1-methylbenzimidazol-5-yl)-6-[4-(methylamino)piperidin-1-yl]pyrazin-2-yl]benzonitrile]: the IC50 was < 100 nM in assay [2] and < 100 nM in assay [1] (Homo sapiens, 96 h).
Regarding `CNC1CCN(c2cnc(-c3cc4ncn(C)c4c(F)c3F)c(-c3ccc(C#N)c(F)c3)n2)CC1` [Example 62, 4-[3-(6,7-difluoro-1-methylbenzimidazol-5-yl)-6-[4-(methylamino)piperidin-1-yl]pyrazin-2-yl]-2-fluorobenzonitrile], the IC50 was < 100 nM in assay [2] and < 100 nM in assay [1] (Homo sapiens, 96 h).
As for `CNC1CCN(c2cnc(-c3ccc(OC)c(F)c3)c(-c3ccc(C#N)c(F)c3)n2)CC1` [Example 63], the IC50 is < 100 nM in assay [2] and < 100 nM in assay [1] (Homo sapiens, 96 h).
Take `CNC1CCN(c2cnc(C#CC3(O)CCCC3)c(-c3ccc(C#N)c(F)c3)n2)CC1` [Example 64, 2-fluoro-4-[3-[2-(1-hydroxycyclopentyl)ethynyl]-6-[4-(methylamino)piperidin-1-yl]pyrazin-2-yl]benzonitrile]: the IC50 in assay [2] was < 100 nM; in assay [1] (Homo sapiens, 96 h) it was < 100 nM.
`CNC1CCN(c2cnc(-c3ccc4c(c3)ncn4C)c(-c3ccc(C#N)c(F)c3)n2)CC1` [Example 65, 2-fluoro-4-[6-[4-(methylamino)piperidin-1-yl]-3-(1-methylbenzimidazol-5-yl)pyrazin-2-yl]benzonitrile]: the half-maximal inhibitory concentration (IC50) in assay [2] was < 100 nM; in assay [1] (Homo sapiens, 96 h) it was < 100 nM.
For the molecule `CNC1CCN(c2cnc(C#CC(C)(C)O)c(-c3ccc(C#N)c(F)c3)n2)CC1` [Example 66, 2-fluoro-4-[3-(3-hydroxy-3-methylbut-1-ynyl)-6-[4-(methylamino)piperidin-1-yl]pyrazin-2-yl]benzonitrile], the concentration for half-maximal inhibition (IC50) is < 100 nM in assay [2] and < 100 nM in assay [1] (Homo sapiens, 96 h).
On to `CNC1CCN(c2cnc(-c3cc4ncn(C(C)C)c4cc3F)c(-c3ccc(C#N)c(F)c3)n2)CC1` [Example 67, 2-fluoro-4-[3-(6-fluoro-1-propan-2-ylbenzimidazol-5-yl)-6-[4-(methylamino)piperidin-1-yl]pyrazin-2-yl]benzonitrile], for which the concentration for half-maximal inhibition (IC50) in assay [2] is < 100 nM; in assay [1] (Homo sapiens, 96 h) it was < 100 nM.
With `CNC1CCN(c2cnc(-c3ccc4c(c3)ncn4C(C)C)c(-c3ccc(C#N)c(F)c3)n2)CC1` [Example 68, 2-fluoro-4-[6-[4-(methylamino)piperidin-1-yl]-3-(1-propan-2-ylbenzimidazol-5-yl)pyrazin-2-yl]benzonitrile], the IC50 in assay [2] was < 100 nM; in assay [1] (Homo sapiens, 96 h), < 100 nM.
With `CCn1cnc2cc(-c3ncc(N4CCC(NC)CC4)nc3-c3ccc(C#N)c(F)c3)c(F)cc21` [Example 69, 4-[3-(1-ethyl-6-fluorobenzimidazol-5-yl)-6-[4-(methylamino)piperidin-1-yl]pyrazin-2-yl]-2-fluorobenzonitrile], the half-maximal inhibitory concentration (IC50) was < 100 nM in assay [2] and < 100 nM in assay [1] (Homo sapiens, 96 h).
Take `CC(C)n1cnc2cc(-c3ncc(N4CCC(N)CC4)nc3-c3ccc(C#N)c(F)c3)c(F)cc21` [Example 70, 4-[6-(4-aminopiperidin-1-yl)-3-(6-fluoro-1-propan-2-ylbenzimidazol-5-yl)pyrazin-2-yl]-2-fluorobenzonitrile]: the IC50 is < 100 nM in assay [2] and < 100 nM in assay [1] (Homo sapiens, 96 h).
For `CCn1cnc2cc(-c3ncc(N4CCC(N)CC4)nc3-c3ccc(C#N)c(F)c3)c(F)cc21` [Example 71, 4-[6-(4-aminopiperidin-1-yl)-3-(1-ethyl-6-fluorobenzimidazol-5-yl)pyrazin-2-yl]-2-fluorobenzonitrile], the concentration for half-maximal inhibition (IC50) in assay [2] was < 100 nM; in assay [1] (Homo sapiens, 96 h), < 100 nM.
As to `CC(C)n1cnc2cc(-c3ncc(N4CCC(N)CC4)nc3-c3ccc(C#N)c(F)c3)ccc21` [Example 72, 4-[6-(4-aminopiperidin-1-yl)-3-(1-propan-2-ylbenzimidazol-5-yl)pyrazin-2-yl]-2-fluorobenzonitrile], the 50% inhibitory concentration (IC50) was < 100 nM in assay [2] and < 100 nM in assay [1] (Homo sapiens, 96 h).
Take `CC(C)n1cnc2cc(-c3ncc(N4CCC(N)CC4)nc3-c3ccc(C#N)c(F)c3)c(F)c(F)c21` [Example 73, 4-[6-(4-aminopiperidin-1-yl)-3-(6,7-difluoro-1-propan-2-ylbenzimidazol-5-yl)pyrazin-2-yl]-2-fluorobenzonitrile]: the IC50 was < 100 nM in assay [2] and < 100 nM in assay [1] (Homo sapiens, 96 h).

As usually defined, the IC50 is the concentration at which inhibition is half-maximal.
